System: isolated rabbit hearts
Assay: extraction and retention of tracer in isolated perfused rabbit hearts (indicator dilution, coronary sinus outflow)
Set-up: species or system New Zealand white rabbits
Settings: isolated rabbit heart
Experimental: For isolated heart studies, after anesthesia with pentobarbital, the hearts were removed from 2 to 3 kg New Zealand white rabbits and mounted on a perfusion system in which the flow was controlled and the perfusion pressure monitored. The perfusate was (mM): Na 142, K 5.4, Mg 1.0, Ca 2.0, Cl 141, HCO3 12, PO4 0.435, glucose 11.0, and insulin 2 units/L, at 37° C. The coronary sinus flow and Thebesian flow into the right ventricle were collected via cannula placed through the pulmonary artery and a total effluent flow measured with graduated cylinder and stopwatch. Reference and test tracers were simultaneously injected as a mixed bolus into the aortic cannula, which supplied only the coronary system. Samples of the coronary sinus effluent were taken from the cannulated pulmonary artery at intervals of 1, 2, 4 or 10 seconds; higher sampling rates were used during the first part of the curves. The outflow of response was calculated as the fraction of dose emerging per unit time, h(t), at each time t:
F is the perfusate flow ml×s^-1 ;
C(t) is the concentration of tracer, cpm/ml; and
q0 is the injected dose of tracer, cpm.

## CNCCCN1c2ccccc2CCc2ccc([125I])cc21 [^125 I-DMI]
10-20 min
  retentions at 10-20 min: about 80%
37° C., plasma flows up to 1.5 ml/min×g
  maximal instantaneous extractions: 96%
1 min, minimum value, indicator possibly impure
  Overall retentions at 1 min: about 91%

Source: US4606908A, “Methods and compositions for plasma and organ imaging” (Washington Research Foundation, priority 1983, dated 1986)
